According to ChEMBL document CHEMBL1782017, “Synthesis and biological evaluation of new flavonoid fatty acid esters with anti-adipogenic and enhancing glucose consumption activities” (2011):

Legend:
3T3-L1 [1] = experiment: Antiproliferative activity against mouse 3T3L1 cells after 48 hrs by MTT assay; format: functional; design: concentration or dose not given beside the values
3T3-L1 [2] = experiment: Inhibition of adipogenesis in mouse 3T3L1 cells at 100 umol/L after 8 days by Oil red O-staining; format: functional; conditions: 3T3-L1, 192 h
3T3-L1 [3] = experiment: Glucose consumption in differentiated mouse 3T3L1 cells in low-glucose medium after 24 hrs by glucose-oxidase method; format: functional, cell-based
3T3-L1 [4] = experiment: Glucose consumption in differentiated mouse 3T3L1 cells in high-glucose medium after 24 hrs by glucose-oxidase method; format: functional, cell-based
3T3-L1 [5] = experiment: Glucose consumption in differentiated mouse 3T3L1 cells in low-glucose medium at 50 ug/ml after 24 hrs by glucose-oxidase method (Rvb =2.41 +/- 0.22 mmol/L); format: functional
3T3-L1 [6] = experiment: Glucose consumption in differentiated mouse 3T3L1 cells in low-glucose medium at 100 ug/ml after 24 hrs by glucose-oxidase method (Rvb =2.35 +/- 0.19 mmol/L); format: functional
3T3-L1 [7] = experiment: Glucose consumption in differentiated mouse 3T3L1 cells in high-glucose medium at 50 ug/ml after 24 hrs by glucose-oxidase method (Rvb =3.06 +/- 0.29 mmol/L); format: functional
3T3-L1 [8] = experiment: Glucose consumption in differentiated mouse 3T3L1 cells in high-glucose medium at 100 ug/ml after 24 hrs by glucose-oxidase method (Rvb =3.12 +/- 0.32 mmol/L); format: functional
3T3-L1 [9] = experiment: Increase in glucose consumption in differentiated mouse 3T3L1 cells in low-glucose medium at 50 ug/ml after 24 hrs by glucose-oxidase method relative to control; format: functional
3T3-L1 [10] = experiment: Increase in glucose consumption in differentiated mouse 3T3L1 cells in low-glucose medium at 100 ug/ml after 24 hrs by glucose-oxidase method relative to control; format: functional
3T3-L1 [11] = experiment: Increase in glucose consumption in differentiated mouse 3T3L1 cells in high-glucose medium at 100 ug/ml after 24 hrs by glucose-oxidase method relative to control; format: functional

## CCCCCCCCCCCCCCCC(=O)Oc1ccc2c(c1)C(=O)/C(=C/c1cccc(OC)c1)O2
3T3-L1 [1]
  Activity: -20.26%

## CCCCCCCCCCCCCCCCCC(=O)Oc1ccc2c(c1)C(=O)/C(=C/c1cccc(OC)c1)O2
3T3-L1 [1]
  Activity: -10.94%

## CCCCCCCCCCCCCCCCCC(=O)Oc1ccc2c(=O)c(Cc3ccc(OC)cc3)coc2c1
3T3-L1 [2]
  inhibition at 100 µM: 1.95%
3T3-L1 [1]
  Activity: -31.87%

## CCCCC/C=C\C=C\CCCCCCCCC(=O)Oc1ccc2c(c1)C(=O)/C(=C/c1ccc(OC)c(OC)c1)O2
3T3-L1 [3]
  Activity: Dose-dependent effect
3T3-L1 [4]
  Activity: Dose-dependent effect
3T3-L1 [2]
  inhibition at 100 µM: 1.88%
3T3-L1 [1]
  Activity: 20.72%
3T3-L1 [5]
  Activity: 2.99 mmol/L
3T3-L1 [6]
  Activity: 3.85 mmol/L
3T3-L1 [7]
  Activity: 3.71 mmol/L
3T3-L1 [8]
  Activity: 5.08 mmol/L

## CCCCCCCC/C=C\CCCCCCCC(=O)Oc1ccc2c(=O)c(-c3ccc(OC)cc3)coc2c1 [OLEOYL FORMONONETIN]
3T3-L1 [3]
  Activity: Dose-dependent effect
3T3-L1 [4]
  Activity: Dose-dependent effect
3T3-L1 [2]
  inhibition at 100 µM: 2.52%
3T3-L1 [1]
  Activity: 10.91%
3T3-L1 [5]
  Activity: 5.01 mmol/L
3T3-L1 [6]
  Activity: 6.95 mmol/L
3T3-L1 [7]
  Activity: 6.52 mmol/L
3T3-L1 [8]
  Activity: 7.49 mmol/L

## C=CCCCCCCCCC(=O)Oc1ccc2c(c1)O/C(=C\c1ccc(OC)cc1)C2=O
3T3-L1 [1]
  Activity: -1.39%

## C=CCCCCCCCCC(=O)Oc1ccc2c(c1)C(=O)/C(=C/c1ccc(OC)c(OC)c1)O2
3T3-L1 [1]
  Activity: -22.17%

## CCc1ccc(CCOc2ccc(CC3SC(=O)NC3=O)cc2)nc1 (stereo unspecified) [PIOGLITAZONE]
3T3-L1 [3]
  Activity: Dose-dependent effect
3T3-L1 [4]
  Activity: Dose-dependent effect
3T3-L1 [5]
  Activity: 5.51 mmol/L
3T3-L1 [6]
  Activity: 6.75 mmol/L
3T3-L1 [7]
  Activity: 7.36 mmol/L
3T3-L1 [8]
  Activity: 8.15 mmol/L

## CCCCCCCCCCCCCCCCCC(=O)Oc1ccc2c(c1)C(=O)/C(=C/c1ccc(F)cc1)O2
3T3-L1 [1]
  Activity: -9.45%

## CCCCC/C=C\C=C\CCCCCCCCC(=O)Oc1ccc2c(c1)C(=O)/C(=C/c1cccc([N+](=O)[O-])c1)O2
3T3-L1 [3]
  Activity: Dose-dependent effect
3T3-L1 [4]
  Activity: Dose-dependent effect
3T3-L1 [2]
  inhibition at 100 µM: 15.1%
3T3-L1 [1]
  Activity: -12.06%
3T3-L1 [5]
  Activity: 3.64 mmol/L
3T3-L1 [6]
  Activity: 4.29 mmol/L
3T3-L1 [7]
  Activity: 4.21 mmol/L
3T3-L1 [8]
  Activity: 4.95 mmol/L

## CCCCCCCCCCCCCCCCCC(=O)Oc1ccc2c(c1)O/C(=C\c1ccc(OC)cc1)C2=O
3T3-L1 [2]
  inhibition at 100 µM: 0%
3T3-L1 [1]
  Activity: 11.43%

## CCCCC/C=C\C=C\CCCCCCCCC(=O)Oc1ccc2c(c1)C(=O)/C(=C/c1cccc(Cl)c1)O2
3T3-L1 [1]
  Activity: -11.46%

## CCCCC/C=C\C=C\CCCCCCCCC(=O)Oc1ccc2c(c1)C(=O)/C(=C/c1cccc(OC)c1)O2
3T3-L1 [1]
  Activity: 6.45%

## CCCCCCCCCCCCCCCCCC(=O)Oc1ccc2c(c1)C(=O)/C(=C/c1ccc(OC)cc1)O2
3T3-L1 [1]
  Activity: -10.93%

## CCCCCCCCCCCCCCCCCC(=O)Oc1ccc2c(c1)C(=O)/C(=C/c1ccc(OC)c(OC)c1)O2
3T3-L1 [1]
  Activity: -3.84%

## CCCCCCCC/C=C\CCCCCCCC(=O)Oc1ccc2c(c1)C(=O)/C(=C/c1ccc(F)cc1)O2
3T3-L1 [3]
  Activity: Dose-dependent effect
3T3-L1 [4]
  Activity: Dose-dependent effect
3T3-L1 [2]
  inhibition at 100 µM: 9.38%
3T3-L1 [1]
  Activity: 22.57%
3T3-L1 [5]
  Activity: 3.81 mmol/L
3T3-L1 [6]
  Activity: 4.35 mmol/L
3T3-L1 [7]
  Activity: 4.07 mmol/L
3T3-L1 [8]
  Activity: 4.82 mmol/L

## CCCCCCCC/C=C\CCCCCCCC(=O)Oc1ccc2c(c1)C(=O)/C(=C/c1ccc(OC)c(OC)c1)O2
3T3-L1 [2]
  inhibition at 100 µM: 0%
3T3-L1 [1]
  Activity: 12.53%

## CCCCC/C=C\C=C\CCCCCCCCC(=O)Oc1ccc2c(c1)C(=O)/C(=C/c1ccc(F)cc1)O2
3T3-L1 [2]
  inhibition at 100 µM: 0%
3T3-L1 [1]
  Activity: 14.2%

## CCCCCCCCCCCCCCCC(=O)Oc1ccc2c(c1)C(=O)/C(=C/c1ccc(F)cc1)O2
3T3-L1 [1]
  Activity: -0.47%

## CCCCCCCCCCCCCCCC(=O)Oc1ccc2c(c1)C(=O)/C(=C/c1ccc(Br)cc1)O2
3T3-L1 [1]
  Activity: 1.05%

## CCCCCCCC/C=C\CCCCCCCC(=O)Oc1ccc2c(c1)C(=O)/C(=C/c1ccc(Br)cc1)O2
3T3-L1 [2]
  inhibition at 100 µM: 16.6%
3T3-L1 [1]
  Activity: -6.62%

## CCCCCCCC/C=C\CCCCCCCC(=O)Oc1ccc2c(=O)c(Cc3ccc(OC)cc3)coc2c1
3T3-L1 [3]
  Activity: Dose-dependent effect
3T3-L1 [4]
  Activity: Dose-dependent effect
3T3-L1 [2]
  inhibition at 100 µM: 47.5%
3T3-L1 [1]
  Activity: 1.88%
3T3-L1 [5]
  Activity: 2.71 mmol/L
3T3-L1 [6]
  Activity: 3.38 mmol/L
3T3-L1 [7]
  Activity: 3.49 mmol/L
3T3-L1 [8]
  Activity: 4.23 mmol/L

## CCCCCCCC/C=C\CCCCCCCC(=O)Oc1ccc2c(c1)C(=O)/C(=C/c1cccc(OC)c1)O2
3T3-L1 [2]
  inhibition at 100 µM: 0%
3T3-L1 [1]
  Activity: -5.41%

## C=CCCCCCCCCC(=O)Oc1ccc2c(c1)C(=O)/C(=C/c1cccc([N+](=O)[O-])c1)O2
3T3-L1 [1]
  Activity: -8.37%

## CCCCCCCC/C=C\CCCCCCCC(=O)Oc1ccc2c(c1)C(=O)/C(=C/c1cccc([N+](=O)[O-])c1)O2
3T3-L1 [2]
  inhibition at 100 µM: 15.6%
3T3-L1 [1]
  Activity: 17.55%
3T3-L1 [5]
  Activity: 2.93 mmol/L
3T3-L1 [6]
  Activity: 3.47 mmol/L
3T3-L1 [7]
  Activity: 3.35 mmol/L
3T3-L1 [8]
  Activity: 3.96 mmol/L

## CCCCCCCCCCCCCCCCCC(=O)Oc1ccc2c(c1)C(=O)/C(=C/c1cccc(Cl)c1)O2
3T3-L1 [1]
  Activity: -0.06%

## CCCCC/C=C\C=C\CCCCCCCCC(=O)Oc1ccc2c(c1)C(=O)/C(=C/c1ccc(Br)cc1)O2
3T3-L1 [1]
  Activity: 11.09%

## CCCCCCCCCCCCCCCC(=O)Oc1ccc2c(c1)C(=O)/C(=C/c1ccc(OC)cc1)O2
3T3-L1 [1]
  Activity: 1.19%

## CCCCC/C=C\C=C\CCCCCCCCC(=O)Oc1ccc2c(c1)C(=O)/C(=C/c1ccc(OC)cc1)O2
3T3-L1 [2]
  inhibition at 100 µM: 22.6%
3T3-L1 [1]
  Activity: -24.96%

## C=CCCCCCCCCC(=O)Oc1ccc2c(c1)C(=O)/C(=C/c1cccc(OC)c1)O2
3T3-L1 [1]
  Activity: 0.21%

## C=CCCCCCCCCC(=O)Oc1ccc2c(=O)c(Cc3ccc(OC)cc3)coc2c1
3T3-L1 [1]
  Activity: -17.45%

## CCCCCCCC/C=C\CCCCCCCC(=O)Oc1ccc2c(c1)C(=O)/C(=C/c1ccc(OC)cc1)O2
3T3-L1 [3]
  Activity: Dose-dependent effect
3T3-L1 [4]
  Activity: Dose-dependent effect
3T3-L1 [2]
  inhibition at 100 µM: 11.7%
3T3-L1 [1]
  Activity: 17.69%
3T3-L1 [5]
  Activity: 4.48 mmol/L
3T3-L1 [6]
  Activity: 5.05 mmol/L
3T3-L1 [7]
  Activity: 4.91 mmol/L
3T3-L1 [8]
  Activity: 5.67 mmol/L

## CCCCCCCCCCCCCCCC(=O)Oc1ccc2c(c1)C(=O)/C(=C/c1ccc(OC)c(OC)c1)O2
3T3-L1 [1]
  Activity: -3.72%

## CCCCCCCCCCCCCCCCCC(=O)Oc1ccc2c(c1)C(=O)/C(=C/c1cccc([N+](=O)[O-])c1)O2
3T3-L1 [1]
  Activity: -5.03%

## CCCCCCCC/C=C\CCCCCCCC(=O)Oc1ccc2c(c1)O/C(=C\c1ccc(OC)cc1)C2=O
3T3-L1 [3]
  Activity: Dose-dependent effect
3T3-L1 [4]
  Activity: Dose-dependent effect
3T3-L1 [9]
  fold change (FC): 2.39
3T3-L1 [10]
  fold change (FC): 2.39
3T3-L1 [11]
  fold change (FC): 2.39
3T3-L1 [2]
  inhibition at 100 µM: 14.3%
3T3-L1 [1]
  Activity: 22.18%
3T3-L1 [5]
  Activity: 4.94 mmol/L
3T3-L1 [6]
  Activity: 5.61 mmol/L
3T3-L1 [7]
  Activity: 5.48 mmol/L
3T3-L1 [8]
  Activity: 6.05 mmol/L

## C=CCCCCCCCCC(=O)Oc1ccc2c(c1)C(=O)/C(=C/c1ccc(Br)cc1)O2
3T3-L1 [1]
  Activity: 1.25%

## C=CCCCCCCCCC(=O)Oc1ccc2c(c1)C(=O)/C(=C/c1ccc(OC)cc1)O2
3T3-L1 [1]
  Activity: -2.09%

## CCCCCCCCCCCCCCCCCC(=O)Oc1ccc2c(c1)C(=O)/C(=C/c1ccc(Br)cc1)O2
3T3-L1 [1]
  Activity: 5.02%

## C=CCCCCCCCCC(=O)Oc1ccc2c(c1)C(=O)/C(=C/c1ccc(F)cc1)O2
3T3-L1 [3]
  Activity: Dose-dependent effect
3T3-L1 [4]
  Activity: Dose-dependent effect
3T3-L1 [2]
  inhibition at 100 µM: 25.4%
3T3-L1 [1]
  Activity: 16.67%
3T3-L1 [5]
  Activity: 4.41 mmol/L
3T3-L1 [6]
  Activity: 5.45 mmol/L
3T3-L1 [7]
  Activity: 5.16 mmol/L
3T3-L1 [8]
  Activity: 5.85 mmol/L

## CCCCCCCC/C=C\CCCCCCCC(=O)Oc1ccc2c(c1)C(=O)/C(=C/c1cccc(Cl)c1)O2
3T3-L1 [2]
  inhibition at 100 µM: 0%
3T3-L1 [1]
  Activity: 20.76%

## C=CCCCCCCCCC(=O)Oc1ccc2c(c1)C(=O)/C(=C/c1cccc(Cl)c1)O2
3T3-L1 [3]
  Activity: Dose-dependent effect
3T3-L1 [4]
  Activity: Dose-dependent effect
3T3-L1 [2]
  inhibition at 100 µM: 28.7%
3T3-L1 [1]
  Activity: 57.4%
3T3-L1 [5]
  Activity: 2.88 mmol/L
3T3-L1 [6]
  Activity: 3.56 mmol/L
3T3-L1 [7]
  Activity: 3.86 mmol/L
3T3-L1 [8]
  Activity: 4.49 mmol/L

## CCCCC/C=C\C=C\CCCCCCCCC(=O)Oc1ccc2c(=O)c(Cc3ccc(OC)cc3)coc2c1
3T3-L1 [1]
  Activity: -4.37%
